This is an account of results in the supplement of paper PMC10307832.

Holding throughout (experiment): relative viability (nuclei count vs DMSO), 5 days (fraction); higher = more cells survive
Compound in assay [1]: C1=CC=C2C(=C1)N=C(S2)C(C#N)C3=NC(=NC=C3)NCCC4=CN=CC=C4 + Nc1nc2[nH]cc(CCc3ccc(C(=O)N[C@@H](CCC(=O)O)C(=O)O)cc3)c2c(=O)[nH]1 [Pemetrexed] (partner 0.2 µM)
The essentials: (§1)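 Relative viability divides the nuclei count in treated wells by that in vehicle wells. Lung cancer cell lines were seeded in 1536-well plates, dosed by pin tool the next day, and fixed and stained after 5 days in one step with final 0.05% Triton X-100, 1% formaldehyde and 1 ug/ml Hoechst. Dosing was a single drug or a fixed anchor-drug dose plus five library-drug doses (not always all listed) in √10 steps, and values are medians of duplicate plates imaged at 4×.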

Compound in assay [2]: C1=CC=C2C(=C1)N=C(S2)C(C#N)C3=NC(=NC=C3)NCCC4=CN=CC=C4 + CC1(C)CCC(c2ccc(Cl)cc2)=C(CN2CCN(c3ccc(C(=O)NS(=O)(=O)c4ccc(N[C@H](CCN5CCOCC5)CSc5ccccc5)c(S(=O)(=O)C(F)(F)F)c4)cc3)CC2)C1 [Navitoclax] (partner 0.5 µM)
The method in brief:
as §1

Compound in assay [3]: C#Cc1cccc(Nc2ncnc3cc(OC)c(OCCCCCCC(=O)NO)cc23)c1 [CUDC-101] + Nc1ncn([C@H]2C[C@H](O)[C@@H](CO)O2)c(=O)n1 [Decitabine] (partner 2 µM)
The essentials: as §1

Compound in assay [4]: COc1cc2/c(=N/c3ccc(Br)cc3F)nc[nH]c2cc1OCC1CCN(C)CC1 [Vandetanib] + N=C(N)NC(=N)NCCc1ccccc1 [Phenformin] (partner 250 µM)
The method in brief: as §1

As to UMC-11, the relative viability in assay [1] (first compound 0.01581 µM) came out at 0.79; in assay [1] (first compound 0.05 µM) it was 0.769; in assay [1] (first compound 0.1581 µM) it was 0.94; in assay [1] (first compound 0.5 µM), 0.771; in assay [2] (first compound 0.005 µM), 0.28; in assay [2] (first compound 0.01581 µM), 0.304. For the same cell line, the relative viability came out at 0.294 in assay [2] (first compound 0.05 µM); 0.307 in assay [2] (first compound 0.1581 µM); 0.306 in assay [2] (first compound 0.5 µM); 0.761 in assay [3] (first compound 0.01 µM); 0.477 in assay [3] (first compound 0.03162 µM); 0.601 in assay [3] (first compound 0.1 µM). The relative viability in assay [3] (first compound 0.3162 µM) amounted to 0.462; in assay [3] (first compound 1 µM), 0.221; in assay [4] (first compound 0.02 µM), 0.3; in assay [4] (first compound 0.06325 µM) it was 0.308; in assay [4] (first compound 0.2 µM), 0.33; in assay [4] (first compound 0.6325 µM), 0.289. In addition, the relative viability in assay [4] (first compound 2 µM) came to 0.335.
